Test results taken from patent US10766865B2, “PKM2 modulators and methods for their use” (TOLERO PHARMACEUTICALS, INC., priority 2012, dated 2020).
Read-outs that look alike come from different tables or passages of the source.

Columns and labels:
PKM2 = PKM2 (Homo sapiens, UniProt P14618); test: PKM2 Biochemical Assay
Procedure: Full length, human PKM2 enzyme was obtained from Promab (Richmond, Calif.). All reagents, unless otherwise noted, were obtained from Sigma (St. Louis, Mo.).
Compounds were pre-incubated with 2 nM PKM2 in reaction buffer (50 mM Tris-HCl, pH 8.0, 200 mM KCl, 30 mM MgCl2, 2 mM DTT, 5% DMSO) for 30 min at ambient temperature. […] After 30 min, ATP formation was measured by Kinase Glo (Promega, Madison, Wis.), and AC50 values were determined using Prism (GraphPad Software, Inc., La Jolla, Calif.).

MDA-MB453 = test: Cell line sensitivity (viability, ATPlite); assay type: cell-based; settings: Homo sapiens, MDA-MB-453; MDA-MB453, Breast; BME media, 72 hours; read-out: Sensitivity to Example 1 (IC50)
Procedure: (§1) Viability effect of Example 1 against a subset of lung carcinoma cell lines was determined as follows. Cells were seeded at 1500 cells per well in 384-well plates in BME media, and compound was added in 0.1% DMSO 18 hours later. Viability was determined by ATPlite assay after 72 hours. (See FIG. 4C).
(§2) Example 1 was tested against an expanded panel of cell lines according to the above procedure.

Capan1 = test: Cell line sensitivity (viability, ATPlite); assay type: cell-based; settings: Homo sapiens, CAPAN-1; Capan1, Pancreatic; BME media, 72 hours; read-out: Sensitivity to Example 1 (IC50)
Procedure: as §1, §2

NCI-H522 = test: Cell line sensitivity (viability, ATPlite); assay type: cell-based; settings: Homo sapiens; NCI-H522, Lung; BME media, 72 hours; read-out: Sensitivity to Example 1 (IC50)
Procedure: as §1, §2

Malme3M = test: Cell line sensitivity (viability, ATPlite); assay type: cell-based; settings: Homo sapiens, Malme-3M, Melanoma, BME media, 72 hours, read-out: Sensitivity to Example 1 (IC50)
Procedure: as §1, §2

PSN-1 = test: Cell line sensitivity (viability, ATPlite); assay type: cell-based; settings: Homo sapiens, PSN1; PSN-1, Pancreatic; BME media, 72 hours; read-out: Sensitivity to Example 1 (IC50)
Procedure: as §1, §2

Capan2 = test: Cell line sensitivity (viability, ATPlite); assay type: cell-based; settings: Homo sapiens, Capan-2; Capan2, Pancreatic; BME media, 72 hours; read-out: Sensitivity to Example 1 (IC50)
Procedure: as §1, §2

PC3 = test: Cell line sensitivity (viability, ATPlite); assay type: cell-based; settings: Homo sapiens, PC-3; PC3, Prostate; BME media, 72 hours; read-out: Sensitivity to Example 1 (IC50)
Procedure: as §1, §2

H1299 = test: Cell line sensitivity (viability, ATPlite); assay type: cell-based; settings: Homo sapiens, NCI-H1299; H1299, Lung; BME media, 72 hours; read-out: Sensitivity to Example 1 (IC50)
Procedure: as §1, §2

HT29 = test: Cell line sensitivity (viability, ATPlite); assay type: cell-based; settings: Homo sapiens, HT-29; HT29, Colon; BME media, 72 hours; read-out: Sensitivity to Example 1 (IC50)
Procedure: as §1, §2

A172 = test: Cell line sensitivity (viability, ATPlite); assay type: cell-based; settings: Homo sapiens, A 172; A172, Brain; BME media, 72 hours; read-out: Sensitivity to Example 1 (IC50)
Procedure: as §1, §2

HT1080 = test: Cell line sensitivity (viability, ATPlite); assay type: cell-based; settings: Homo sapiens, HT-1080; HT1080, Sarcoma; BME media, 72 hours; read-out: Sensitivity to Example 1 (IC50)
Procedure: as §1, §2

MiaPaCa2 = test: Cell line sensitivity (viability, ATPlite); assay type: cell-based; settings: Homo sapiens, MIA PaCa-2; MiaPaCa2, Pancreatic; BME media, 72 hours; read-out: Sensitivity to Example 1 (IC50)
Procedure: as §1, §2

SW48 = test: Cell line sensitivity (viability, ATPlite); assay type: cell-based; settings: Homo sapiens; SW48, Colon; BME media, 72 hours; read-out: Sensitivity to Example 1 (IC50)
Procedure: as §1, §2

Gist882 = test: Cell line sensitivity (viability, ATPlite); assay type: cell-based; settings: Homo sapiens; Gist882, GIST; BME media, 72 hours; read-out: Sensitivity to Example 1 (IC50)
Procedure: as §1, §2

LNCaP = test: Cell line sensitivity (viability, ATPlite); assay type: cell-based; settings: Homo sapiens, Prostate, BME media, 72 hours, read-out: Sensitivity to Example 1 (IC50)
Procedure: as §1, §2

A498 = test: Cell line sensitivity (viability, ATPlite); assay type: cell-based; settings: Homo sapiens; A498, Kidney; BME media, 72 hours; read-out: Sensitivity to Example 1 (IC50)
Procedure: as §1, §2

UMUC-3 = test: Cell line sensitivity (viability, ATPlite); assay type: cell-based; settings: Homo sapiens, UMUC3; UMUC-3, Bladder; BME media, 72 hours; read-out: Sensitivity to Example 1 (IC50)
Procedure: as §1, §2

Ls174T = test: Cell line sensitivity (viability, ATPlite); assay type: cell-based; settings: Homo sapiens, Colon, BME media, 72 hours, read-out: Sensitivity to Example 1 (IC50)
Procedure: as §1, §2

A549 = test: Cell line sensitivity (viability, ATPlite); assay type: cell-based; settings: Homo sapiens; A549, Lung; BME media, 72 hours; read-out: Sensitivity to Example 1 (IC50)
Procedure: as §1, §2

Du145 = test: Cell line sensitivity (viability, ATPlite); assay type: cell-based; settings: Homo sapiens, DU-145; Du145, Prostate; BME media, 72 hours; read-out: Sensitivity to Example 1 (IC50)
Procedure: as §1, §2

RKO = test: Cell line sensitivity (viability, ATPlite); assay type: cell-based; settings: Homo sapiens, Colon, BME media, 72 hours, read-out: Sensitivity to Example 1 (IC50)
Procedure: as §1, §2

MDA-MB468 = test: Cell line sensitivity (viability, ATPlite); assay type: cell-based; settings: Homo sapiens, MDA-MB-468; MDA-MB468, Breast; BME media, 72 hours; read-out: Sensitivity to Example 1 (IC50)
Procedure: as §1, §2

FaDu = test: Cell line sensitivity (viability, ATPlite); assay type: cell-based; settings: Homo sapiens, Head/Neck, BME media, 72 hours, read-out: Sensitivity to Example 1 (IC50)
Procedure: as §1, §2

SW480 = test: Cell line sensitivity (viability, ATPlite); assay type: cell-based; settings: Homo sapiens; SW480, Colon; BME media, 72 hours; read-out: Sensitivity to Example 1 (IC50)
Procedure: as §1, §2

MCF7 = test: Cell line sensitivity (viability, ATPlite); assay type: cell-based; settings: Homo sapiens; MCF7, Breast; BME media, 72 hours; read-out: Sensitivity to Example 1 (IC50)
Procedure: as §1, §2

PL45 = test: Cell line sensitivity (viability, ATPlite); assay type: cell-based; settings: PL45, Pancreatic; BME media, 72 hours; read-out: Sensitivity to Example 1 (IC50)
Procedure: as §1, §2

Sequence of PKM2 (P14618 whole entry): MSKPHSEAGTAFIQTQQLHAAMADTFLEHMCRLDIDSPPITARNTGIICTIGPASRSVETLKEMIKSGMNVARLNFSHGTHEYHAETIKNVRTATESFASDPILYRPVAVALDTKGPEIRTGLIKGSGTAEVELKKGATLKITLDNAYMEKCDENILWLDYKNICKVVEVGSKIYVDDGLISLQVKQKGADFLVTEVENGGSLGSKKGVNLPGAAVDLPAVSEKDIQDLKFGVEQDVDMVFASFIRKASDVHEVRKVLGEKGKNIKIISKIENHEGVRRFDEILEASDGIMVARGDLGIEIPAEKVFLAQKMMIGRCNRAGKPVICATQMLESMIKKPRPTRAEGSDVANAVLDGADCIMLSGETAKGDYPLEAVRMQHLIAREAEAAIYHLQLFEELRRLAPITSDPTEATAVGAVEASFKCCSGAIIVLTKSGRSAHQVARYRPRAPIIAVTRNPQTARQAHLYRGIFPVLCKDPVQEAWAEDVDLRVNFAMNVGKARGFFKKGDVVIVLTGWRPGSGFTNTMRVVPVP

`O=C(c1cc(C(F)(F)F)n[nH]1)N(Cc1ccc(O)cc1F)CC1CCC1` [Example 1, N-(cyclobutylmethyl)-N-(2-fluoro-4-hydroxybenzyl)-3-(trifluoromethyl)-1H-pyrazole-5-carboxamide] was tested, and the “Max. Resp.” value (PKM2; % maximum response in a biochemical assay as compared with Fructose 1,6-bisphosphate) was 100%, the Emax (PKM2; read-out: % FBP (extent of maximal activation, relative to FBP)) was 104 ± 11% and the AC50 (PKM2; read-out: AC50 (concentration of half-maximal PKM2 activation), Table 2, n = 6 to 10) was 11 ± 4 nM. The AC50 (PKM2; read-out: PKM2 AC50, 2 nM PKM2, 75 μM ADP, 15 μM PEP, Kinase Glo) was 11 nM, the “Maximal PKM2 activity” value (PKM2; relative to activity in DMSO controls (normalized to 100%), FIG. 1B) was “approximately 600%” and the IC50 (MDA-MB453) was over 30000 nM. It also gave an IC50 (Capan1) of over 30000 nM, an IC50 (NCI-H522) of over 30000 nM and an IC50 (Malme3M) of over 30000 nM. For the same compound, the IC50 (PSN-1) was over 30000 nM, the IC50 (Capan2) was over 30000 nM and the IC50 (PC3) was 100 nM. It also gave an IC50 (H1299) of 600 nM, an IC50 (HT29) of 100 nM and an IC50 (A172) of 2300 nM. It also gave an IC50 (HT1080) of 50 nM, an IC50 (MiaPaCa2) of 200 nM and an IC50 (SW48) of over 30000 nM. It also gave an IC50 (Gist882) of 800 nM, an IC50 (LNCaP) of over 30000 nM and an IC50 (A498) of over 30000 nM. It also gave an IC50 (UMUC-3) of over 30000 nM, an IC50 (Ls174T) of over 30000 nM and an IC50 (A549) of 100 nM. It also gave an IC50 (Du145) of over 30000 nM, an IC50 (RKO) of over 30000 nM and an IC50 (MDA-MB468) of over 30000 nM. It also gave an IC50 (FaDu) of over 30000 nM, an IC50 (SW480) of 100 nM and an IC50 (MCF7) of over 30000 nM. The IC50 (PL45) was over 30000 nM.
